Test: Solubility check of 20 wt % solutions in organic solvents
Type: physicochemical
Design: key: A: the compound dissolves at room temperature; B: the compound does not dissolve at room temperature but dissolves when heated to 60° C.; the compound does not dissolve even when heated to 60° C
Details: room temperature or heated to 60° C.; for Results of Solubility Chloroform: 20 wt % solution in chloroform; for Results of Solubility Cyclopentanone: 20 wt % solution in cyclopentanone; for Results of Solubility MEK: 20 wt % solution in methyl ethyl ketone (MEK); for Results of Solubility MIBK: 20 wt % solution in methyl isobutyl ketone (MIBK); for Results of Solubility Toluene: 20 wt % solution in toluene; for Results of Solubility Trichloroethane: 20 wt % solution in trichloroethane
Experimental: 20 wt % solutions of each of the compounds to be evaluated in chloroform, trichloroethane, cyclopentanone, methyl ethyl ketone (MEK), methyl isobutyl ketone (MIBK), and toluene were prepared to check the solubilities of the compound to be evaluated.

Row | SMILES | Results of Solubility Chloroform | Results of Solubility Cyclopentanone | Results of Solubility MEK | Results of Solubility MIBK | Results of Solubility Toluene | Results of Solubility Trichloroethane
1 | C=CC(=O)OCCCCCCOc1ccc(OC(=O)C2CCC(COc3ccc(-c4ccc(CCC)cc4)c(/C=N/N(CCOCCOC)c4nc5ccccc5s4)c3)CC2)cc1 (stereo not drawn) [Compound I-11] | A | A | B | B | A | A
2 | C=CC(=O)OCCOCCOCCOc1ccc(OC(=O)C2CCC(C(=O)Oc3ccc(C4CCC(C5CCC(CCC)CC5)CC4)cc3/C=N/N(CCCCCC)c3nc4ccccc4s3)CC2)cc1 (stereo not drawn) [Compound I-4] | A | B | C | C | B | B
3 | C=CC(=O)OCCOCCOCCOc1ccc(OC(=O)C2CCC(C(=O)Oc3ccc(C4CCC(CCC)CC4)cc3/C=N/N(CCCCCC)c3nc4ccccc4s3)CC2)cc1 (stereo not drawn) [Compound I-3] | A | A | C | C | B | A
4 | C=CC(=O)OCCOCCOCCOc1ccc(OC(=O)C2CCC(C(=O)Oc3ccc(C4CCC(CCC)CC4)cc3/C=N/Nc3nc4ccccc4s3)CC2)cc1 (stereo not drawn) [Compound I-2] | A | A | A | B | A | A
5 | C=CC(=O)OCCOCCOCCOc1ccc(C(=O)Oc2ccc(-c3ccc(CCC)cc3)cc2/C=N/Nc2nc3ccccc3s2)cc1 [Compound I-1] | A | A | A | A | A | A
6 | C=CC(=O)OCCOCCOCCOc1ccc(OC(=O)C2CCC(COc3ccc(OCC4CCC(C(=O)Oc5ccc(OCCOCCOCCOC(=O)C=C)cc5)CC4)c(/C=N/N(CCCCCC)c4nc5ccccc5s4)c3)CC2)cc1 (stereo not drawn) [Compound I-5] | A | A | B | B | A | A
7 | C=C(C)C(=O)OCCCCCCOc1ccc(OC(=O)C2CCC(COc3ccc(OCC4CCC(C(=O)Oc5ccc(OCCCCCCOC(=O)C(=C)C)cc5)CC4)c(/C=N/N(CCOCCOC)c4nc5ccccc5s4)c3)CC2)cc1 (stereo not drawn) [Compound I-16] | A | A | B | B | A | A
8 | C=CC(=O)OCCCCCCOc1ccc(OC(=O)C2CCC(COc3ccc(C4CCC(CCC)CC4)cc3/C=N/N(CCOCCOC)c3nc4ccccc4s3)CC2)cc1 (stereo not drawn) [Compound I-10] | A | A | B | B | A | A
9 | C=CC(=O)OCCCCCCOc1ccc(OC(=O)C2CCC(C(=O)Oc3ccc(C4CCC(CCC)CC4)cc3/C=N/N(CCOCCOC)c3nc4ccccc4s3)CC2)cc1 (stereo not drawn) [Compound I-7] | A | A | A | B | A | A

Other lines, results leading:

Row | Results of Solubility Chloroform | Results of Solubility Cyclopentanone | Results of Solubility MEK | Results of Solubility MIBK | Results of Solubility Toluene | Results of Solubility Trichloroethane | SMILES
10 | A | A | A | B | A | A | C=CC(=O)OCCCCCCOc1ccc(OC(=O)C2CCC(COc3ccc(OCC4CCC(C(=O)Oc5ccc(OCCCCCCOC(=O)C=C)cc5)CC4)c(/C=N/N(CCOCCOCCOC(=O)C=C)c4nc5ccccc5s4)c3)CC2)cc1 (stereo not drawn) [Compound I-9]
11 | A | B | B | C | B | A | C=CC(=O)OCCOCCOC(=O)C1CCC(C(=O)OC2CCC(C(=O)Oc3ccc(OC(=O)C4CCC(OC(=O)C5CCC(C(=O)OCCOCCOC(=O)C=C)CC5)CC4)c4c3SC(=C3C(=O)N(c5ccccc5)N=C3C(=O)OCC)S4)CC2)CC1 (stereo not drawn) [Compound I-14]
12 | A | C | C | C | B | B | C=CC(=O)OCCCOC(=O)C1CCC(C(=O)OC2CCC(C(=O)Oc3ccc(OC(=O)C4CCC(OC(=O)C5CCC(C(=O)OCCCOC(=O)C=C)CC5)CC4)c4c3SC(=C3C(=O)N(c5ccccc5)N=C3C(=O)OCC)S4)CC2)CC1 (stereo not drawn) [Compound R-3, reference compound]
13 | A | B | C | C | B | B | C=CC(=O)OCCCCCCOc1ccc(OC(=O)C2CCC(C(=O)Oc3ccc(C4CCC(C5CCC(CCC)CC5)CC4)cc3/C=N/N(CCOCCOC)c3nc4ccccc4s3)CC2)cc1 (stereo not drawn) [Compound I-17]
14 | B | C | C | C | B | B | C=CC(=O)OCCCCCCOc1ccc(OC(=O)C2CCC(C(=O)Oc3ccc(OC(=O)C4CCC(C(=O)Oc5ccc(OCCCCCCOC(=O)C=C)cc5)CC4)c4sc(-c5ccc([N+](=O)[O-])cc5)nc34)CC2)cc1 (stereo not drawn) [Compound R-2, reference compound]
15 | A | A | B | B | B | A | C=CC(=O)OCCCCCCOc1ccc(OC(=O)C2CCC(COc3ccc(OCC4CCC(C(=O)Oc5ccc(OCCCCCCOC(=O)C=C)cc5)CC4)c(/C=N/N(CCOCCOC)c4nc5ccccc5s4)c3)CC2)cc1 (stereo not drawn) [Compound I-6]
16 | A | B | C | C | B | A | C=CC(=O)OCCOCCOc1ccc(OC(=O)C2CCC(C(=O)Oc3ccc(OC(=O)C4CCC(C(=O)Oc5ccc(OCCOCCOC(=O)C=C)cc5)CC4)c4sc(-c5cc6c(C)cc(C)cc6o5)nc34)CC2)cc1 (stereo not drawn) [Compound I-13]
17 | A | B | C | C | B | B | C=CC(=O)OCCCCCCOc1ccc(OC(=O)C2CCC(C(=O)Oc3ccc(OC(=O)C4CCC(C(=O)Oc5ccc(OCCCCCCOC(=O)C=C)cc5)CC4)c(/C=N/N(COCCOC)c4nc5ccccc5s4)c3)CC2)cc1 (stereo not drawn) [Compound R-1, reference compound]
18 | A | B | B | C | B | A | C=CC(=O)OCCCCOC(=O)C1CCC(C(=O)OC2CCC(C(=O)Oc3ccc(OC(=O)C4CCC(OC(=O)C5CCC(C(=O)OCCCCOC(=O)C=C)CC5)CC4)c4c3SC(=C(C#N)C(=O)OCCOCCOC(=O)C=C)S4)CC2)CC1 (stereo not drawn) [Compound I-15]
19 | A | A | B | B | A | A | C=CC(=O)OCCCOc1ccc(OC(=O)C2CCC(COc3ccc(OCC4CCC(C(=O)Oc5ccc(OCCCOC(=O)C=C)cc5)CC4)c(/C=N/N(CCOCCOC)c4nc5ccccc5s4)c3)CC2)cc1 (stereo not drawn) [Compound I-8]
20 | A | B | B | C | B | A | C=CC(=O)OCCOCCOCCOc1ccc(OC(=O)C2CCC(C(=O)Oc3ccc(OC(=O)C4CCC(C(=O)Oc5ccc(OCCOCCOCCOC(=O)C=C)cc5)CC4)c4sc(-c5ccc([N+](=O)[O-])cc5)nc34)CC2)cc1 (stereo not drawn) [Compound I-12]
